# Settings: for aqueous solubility: pH 6.8
MDR1-MDCK efflux ratio,"intrinsic clearance, human liver microsomes [mL/min/kg]","intrinsic clearance, rat liver microsomes [mL/min/kg]",aqueous solubility [µg/mL],"fraction unbound, human plasma","fraction unbound, rat plasma",Structure (SMILES)
0.615,≤ 4.74,35.2,37.4,,,OCCN1CCC(c2ccncn2)CC1
2.35,13.3,80.5,,,,Fc1ccc(CCNc2ncnc3ncccc23)cc1
,,,0.33,,,COc1cccc(/C=C2/N=C(c3ccccc3)NC2=O)c1OC
0.497,30.8,181,41.1,,,c1ccc(-n2cc(CNc3ncccn3)cn2)cc1
0.527,28.1,484,56.4,,,CN1CCN(c2ncncc2-c2nc(-c3ccccc3)no2)CC1
6.37,120,675,6.7,,,COc1ccc(CC(=O)N2CCc3[nH]c4ccc(Cl)cc4c3C2)cc1OC
11.3,≤ 4.74,35,,,,Cc1cc2nc(Sc3nnc(C)n3C)c3ccccc3n2n1
0.755,158,3190,37,,,COc1ccccc1-c1nnc([C@H]2CCN(Cc3ccccc3C)C2)o1
0.485,44.5,631,29.7,,,COc1ccc2nc(CN3CCC(O)(c4ccc(C)cc4)CC3)ccc2c1
1.08,34,235,11.1,,,OCCCCCn1cc(-c2ccccc2-c2ccco2)nn1
0.537,≤ 4.74,24.9,28.6,,,Cc1cc(CN(C)Cc2cscn2)no1
0.465,105,310,,,,Cc1cc(Cl)n(-c2ccc(C#N)cc2)n1
,,,0.4,,,COc1cccc(-c2ocnc2C(=O)Nc2ccc(-c3ccc(C)o3)cc2)c1
0.511,89.9,377,11.5,,,Cc1noc2ncc(C(=O)Nc3nc(C4CC4)cs3)cc12
,,,13.1,,,Fc1cccc(Oc2nnnn2-c2ccccc2)c1
0.317,256,747,44.9,,,FC(F)(F)c1nccc(NCCSc2nc3ccccc3o2)n1
0.616,39,83.5,38.1,,,CCCNC(=O)c1ccnc(N(C)C)c1
22.1,126,891,42,,,CCc1ccccc1NC(=O)CCn1ccnc1-c1ccc2c(c1)OCO2
,≤ 4.74,≤ 10.7,18,,,N#Cc1ccc(C(=O)Nn2cnnc2)cc1
1.09,181,3350,4.7,0.0502,,COc1ccc(OCC(=O)Nc2cccc(Cl)c2N2CCN(C(C)=O)CC2)cc1

MDR1-MDCK efflux ratio,"intrinsic clearance, human liver microsomes [mL/min/kg]","intrinsic clearance, rat liver microsomes [mL/min/kg]",aqueous solubility [µg/mL],"fraction unbound, human plasma","fraction unbound, rat plasma",Structure (SMILES)
0.953,192,1400,,,,Cc1noc(C)c1CS(=O)(=O)C1CCCc2ccccc21 (configuration not stated)
,,,31.2,,,CC(=O)NCc1ccc(-c2ccccc2C(=O)O)cc1
0.945,87,2280,11.4,,,O=C(Cc1csc(-c2ccccn2)n1)NC1CCCCCC1
2.71,≤ 4.74,63.5,,,,COCc1noc(CNC(=O)N(C)[C@@H](C)c2ccccc2)n1
0.669,31.7,269,47.6,,,COc1cc(F)c(NCC(=O)Nc2ccc(C)cc2)cc1OC
0.479,23.7,255,,,,COc1ccc(-c2ccc(Cn3nc(C)cc3C)cn2)cc1
28.3,≤ 4.74,≤ 10.7,47.5,,,Cc1cc(C)n(CCNC(=O)NC2CCOCC2)n1
1.54,49.9,901,,,,Cc1nnc2ccc(NCCOC3CCCCCC3)nn12
,89.6,1030,,,,CC(C)(C)c1cc(NS(=O)(=O)c2c(Cl)cccc2Cl)cc(C(C)(C)C)c1
1.23,≤ 4.74,≤ 10.7,,,,Cc1nc(C(=O)NCC(=O)O)c(O)c2ccc(Oc3ccccc3)cc12
0.527,111,1120,38,,,Fc1cccc(CN2CCN(c3ncccn3)CC2)c1
,11.1,52.7,,,,CC(=O)c1ccc(-c2ccc(-c3nn[nH]n3)cc2)cc1
6.7,27.6,289,49.4,,,CCCn1ncc2ccc(C3CCCN(CC(=O)N4CCCC4)C3)nc21 (configuration not stated)
1.19,11.2,≤ 10.7,58.8,,,N#Cc1c(O)nc2scc(-c3ccc(-c4ccccc4O)cc3)c2c1O
2.46,18.3,225,,,,Cc1ccc(-c2cnn3c(O)cc(Cn4cccn4)nc23)cc1
1.23,24.8,146,35.1,,,O=C(CCNc1ncccn1)N1CCc2ccccc2C1
,≤ 4.74,≤ 10.7,33.6,,,CC(=O)N1c2ccccc2C[C@H]1C(=O)O
,353,770,1.04,,,CCn1c(COC(=O)c2ccc(C)s2)nc2cc(S(=O)(=O)N3CCCCC3)ccc21
0.704,≤ 4.74,17.2,,,,OCC1CN(c2nc3cc(F)ccc3o2)C1
,224,1180,,,,COc1ccccc1-n1ncc2c(=O)[nH]c(SC(C)c3ccccc3)nc21 (configuration not stated)

MDR1-MDCK efflux ratio,"intrinsic clearance, human liver microsomes [mL/min/kg]","intrinsic clearance, rat liver microsomes [mL/min/kg]",aqueous solubility [µg/mL],"fraction unbound, human plasma","fraction unbound, rat plasma",Structure (SMILES)
93.4,≤ 4.74,10.9,,,,O[C@H]1CC[C@H](Nc2ncc3nc(Nc4c(F)cc(F)cc4F)n([C@H]4CCOC4)c3n2)CC1
,756,2350,,,,COc1ccnc(N2CCCN(Cc3ccccc3C)CC2)n1
13.2,66.5,322,,0.00395,,C=CC(=O)Nc1cccc(Nc2nc(Nc3ccc(Oc4ccnc(C(=O)NC)c4)cc3)ncc2F)c1
0.695,10.4,94.5,46,,,CN(C)c1cc(CNc2ccc(C#N)cn2)ccn1
41.1,≤ 4.74,120,41.2,0.981,0.559,C[C@@H]1CCN(C(=O)CC#N)C[C@@H]1N(C)c1ncnc2[nH]ccc12
,≤ 4.74,≤ 10.7,,,,C[C@H]1O[C@@H](Oc2c(-c3cc(O)c(O)c(O)c3)oc3cc(O)cc(O)c3c2=O)[C@@H](O)[C@H](O)[C@H]1O
8.96,8.51,,,0.513,,NC1CC(NC(=O)c2ccc(-c3cn[nH]c3)cn2)C12CCC2 (configuration not stated)
0.678,28.8,166,2.4,,,O=C(c1cccc(Cl)c1)N1CCN(C(=O)c2ccc3ccccc3c2O)CC1
28,76.7,557,4,,,C=CCNC(=O)C1(Cc2ccc(-c3ccccc3)cc2)CCN(C(=O)c2cccnc2)CC1
,75.9,604,,,,O=C(c1ccc(NS(=O)(=O)c2cccc3cccnc23)cc1)N1CCN(CC2CC2)CC1
20.3,5.11,63.6,43.4,,,CN1CCc2nc(NC(=O)c3cncn3-c3ccccc3)sc2C1
2.46,16.6,1260,,,,Cc1ccc2oc(C(=O)N3CC[C@H](O)[C@@H](N4CCOCC4)CC3)cc2c1
23.9,≤ 4.74,≤ 10.7,,,,CCCc1cc(O)nc(SCC(=O)N2CCN(C)CC2)n1
,,,42.5,,,O=C(Nc1cc(C2CC2)n[nH]1)C1CCN(C(=O)COc2ccccc2)CC1
1.26,272,503,2.28,,,COC(=O)CC1=NN(c2ccc(OC)cc2)C(=O)/C1=C(/C)NCc1ccc(OC)cc1
7.45,29.1,1180,,,,Cc1nc2n(c1CN1CCN(c3ncccn3)CC1)CCCC2
,,,29.9,,,CN(Cc1cccc(C#N)c1)C(=O)CC(C)(C)C
45.8,42.8,165,24.4,,,O=C1NCC2(C/C=C/CCOc3ccccc31)CCN(C(=O)c1ccc3[nH]nnc3c1)CC2

# Reference: the Biogen ADME set (Fang et al. 2023)
